As usually defined, the EC50 is the concentration that produces a half-maximal response.

This passage reports EC50 results from US11591341B2 (ALIGOS THERAPEUTICS, INC., priority 2019, dated 2023).

SMILES strings stand for the structures. Some results are limits rather than exact numbers.

One assay concerns HBV. As to the kind of experiment: HBV-DNA Antiviral Assay Using HepG2.117 Cells (intracellular HBV DNA by qPCR). It counts as cell-based, hepatitis B virus (genotype D). To be noted: HBV DNA inhibition, HepG2.117 cells, intracellular HBV DNA by qPCR (Table 4); read-out: EC50. A digest of the protocol: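 HepG2.117 cells (genotype D HBV, Tet-off) were induced by doxycycline withdrawal and treated for 3 days with 9 concentrations in 4-fold dilution, 2% DMSO final. Intracellular HBV DNA was measured by qPCR against a standard curve, with ATPlite viability read in parallel. EC50, EC90 and CC50 came from fits against the DMSO control.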
On to `COc1ccc(-n2c(-c3ncccc3Cc3ccccc3)c3n(c2=O)CCN(C(=O)c2ccc(Br)c(Cl)c2)C3)cc1` [Example 308, 1-(3-benzyl-2-pyridyl)-7-(4-bromo-3-chloro-benzoyl)-2-(4-methoxyphenyl)-6,8-dihdyro-5H-imidazo[1,5-a]pyrazin-3-one], for which the EC50 lay within 500 to 5000 nM.

Still in this assay, the particulars now being: Hepatitis B virus, HepG2.117.
With `C[C@H](NC(=O)c1c2n(c(=O)n1-c1ccc(OC3CC3)cc1)CCN(C(=O)c1ccc(Br)c(Cl)c1)C2)c1ccc(O[C@H](C)C(N)=O)cc1F` (stereo in doubt) [Example 357, 7-(4-bromo-3-chloro-benzoyl)-2-[4-(cyclopropoxy)phenyl]-3-oxo-N-[rac-(1S)-1-[2-fluoro-4-[rac-(1R)-2-amino-1-methyl-2-oxo-ethoxy]phenyl]ethyl]-6,8-dihydro-5H-imidazo[1,5-a]pyrazine-1-carboxamide], the EC50 fell in the range of 100 to 500 nM.

Turning to `C[C@H]1CN(Cc2ccccc2)C(=O)c2c3n(c(=O)n2C1)CCN(C(=O)c1ccc(Br)c(Cl)c1)C3` (stereo in doubt) [Example 98, rac-((1S)-13-benzyl-4-(4-bromo-3-chloro-benzoyl)-11-methyl-4,7,9,13-tetrazatricyclo[7.5.0.0^2,7]tetradec-1-ene-8.14-dione], the EC50 lay in the range of 500 to 5000 nM.

The compound `COc1ccc(-n2c(C(=O)NCc3ccccc3)c3n(c2=O)CCN(C(=O)c2ccc(Cl)c(Cl)c2)C3)c(C#N)c1` [Example 80, N-benzyl-2-(2-cyano-4-methoxy-phenyl)-7-(3,4-dichlorobenzoyl)-3-oxo-6,8-dihydro-5H-imidazo[1,5-a]pyrazine-1-carboxamide] registered a 50% effective concentration (EC50) of over 5000 nM.

As to `C[C@@H](NC(=O)c1[nH]c(=O)n2c1CN(C(=O)c1ccc(Br)c(Cl)c1)CC2)c1ccccc1` (racemic) [Example 188, 7-(4-bromo-3-chloro-benzoyl)-3-oxo-N-[rac-(1R)-1-phenylethyl]-2,5,6,8-tetrahydroimidazo[1,5-a]pyrazine-1-carboxamide], the EC50 is 500 to 5000 nM.

The compound `COc1ccc(-n2c(C(=O)NCc3ccc(OCC(N)=O)cc3)c3n(c2=O)CCN(C(=O)c2ccc(Br)c(Cl)c2)C3)cc1` [Example 205, N-[[4-(2-amino-2-oxo-ethoxy)phenyl]methyl]-7-(4-bromo-3-chloro-benzoyl)-2-(4-methoxyphenyl)-3-oxo-6,8-dihydro-5H-imidazo[1,5-a]pyrazine-1-carboxamide] registered an EC50 of 500 to 5000 nM.

Compound `O=C(NCc1c(F)cccc1Cl)c1c2n(c(=O)n1-c1ccc(OC3CC3)cc1)CCN(C(=O)c1ccc(Br)c(Cl)c1)C2` [Example 305, 7-(4-bromo-3-chloro-benzoyl)-N-[(2-chloro-6-fluoro-phenyl)methyl]-2-[4-(cyclopropoxy)phenyl]-3-oxo-6,8-dihydro-5H-imidazo[1,5-a]pyrazine-1-carboxamide] showed an EC50 of 100 to 500 nM.

Turning to `O=C(NCc1ccccc1-n1cccn1)c1c2n(c(=O)n1-c1ccc(OC3CC3)cc1)CCN(C(=O)c1ccc(Br)c(Cl)c1)C2` [Example 457, 7-(4-bromo-3-chloro-benzoyl)-2-[4-(cyclopropoxy)phenyl]-3-oxo-N-[(2-pyrazol-1-ylphenyl)methyl]-6,8-dihydro-5H-imidazo[1,5-a]pyrazine-1-carboxamide], the EC50 is under 100 nM.

With `CCc1cc(OC)ccc1CNC(=O)c1c2n(c(=O)n1-c1ccc(OC)cc1)CCN(C(=O)c1ccc(Br)c(Cl)c1)C2` [Example 251, 7-(4-bromo-3-chloro-benzoyl)-N-[(2-ethyl-4-methoxy-phenyl)methyl]-2-(4-methoxyphenyl)-3-oxo-6,8-dihydro-5H-imidazo[1,5-a]pyrazine-1-carboxamide], the EC50 was 100 to 500 nM.

`C[C@H](NC(=O)c1c2n(c(=O)n1-c1ccc(OC3CC3)cc1)CCN(C(=O)c1ccc(Br)c(Cl)c1)C2)c1ccc(OCC(N)=O)cc1F` (stereo in doubt) [Example 315, 7-(4-bromo-3-chloro-benzoyl)-2-[4-(cyclopropoxy)phenyl]-3-oxo-N-[rac-(1R)-1-[4-(2-amino-2-oxo-ethoxy)-2-fluoro-phenyl]ethyl]-6,8-dihydro-5H-imidazo[1,5-a]pyrazine-1-carboxamide] displayed a half-maximal effective concentration (EC50) of 500 to 5000 nM.

Take `COc1ccc(CNC(=O)c2c3n(c(=O)n2-c2ccccc2)CCN(C(=O)c2ccc(Br)c(Cl)c2)C3)c(F)c1` [Example 40, 7-(4-bromo-3-chloro-benzoyl)-N-[(2-fluoro-4-methoxy-phenyl)methyl]-3-oxo-2-phenyl-6,8-dihydro-5H-imidazo[1,5-a]pyrazine-1-carboxamide]: the EC50 was in the range of 100 to 500 nM.

As to `C[C@H](NC(=O)c1c2n(c(=O)n1-c1ccc(OCC(F)(F)F)cc1)CCN(C(=O)c1ccc(Br)c(Cl)c1)C2)c1ccc(C#N)cc1F` (racemic) [Example 299, 7-(4-bromo-3-chloro-benzoyl)-3-oxo-N-[rac-(1R)-1-(4-cyano-2-fluoro-phenyl)ethyl]-2-[4-(2,2,2-trifluoroethoxy)phenyl]-6,8-dihydro-5H-imidazo[1,5-a]pyrazine-1-carboxamide], the EC50 lay in the range of 500 to 5000 nM.

With `C[C@H](NC(=O)c1c2n(c(=O)n1C1CC1)CCN(C(=O)c1ccc(Br)c(Cl)c1)C2)c1ccccc1` (stereo in doubt) [Example 190, 7-(4-bromo-3-chloro-benzoyl)-2-cyclopropyl-3-oxo-N-[rac-(1S)-1-phenylethyl]-6,8-dihydro-5H-imidazo[1,5-a]pyrazine-1-carboxamide], the EC50 was 500 to 5000 nM.

`COc1ccc(-n2c(C(=O)NCc3ccccc3)c3n(c2=O)C[C@H](C)N(C(=O)c2ccc(Br)c(Cl)c2)C3)cc1` (racemic) [Example 199, rac-(6S)-N-benzyl-7-(4-bromo-3-chloro-benzoyl)-2-(4-methoxyphenyl)-6-methyl-3-oxo-6,8-dihydro-5H-imidazo[1,5-a]pyrazine-1-carboxamide] came in with an EC50 of 100 to 500 nM.

Take `Cn1cnc2c(CNC(=O)c3c4n(c(=O)n3-c3ccc(OC5CC5)cc3)CCN(C(=O)c3ccc(Br)c(Cl)c3)C4)cccc21` [Example 399, 7-(4-bromo-3-chloro-benzoyl)-2-[4-(cyclopropoxy)phenyl]-N-[(1-methylbenzimidazol-4-yl)methyl]-3-oxo-6,8-dihydro-5H-imidazo[1,5-a]pyrazine-1-carboxamide]: the EC50 lay in the range of 100 to 500 nM.

For `CC(C)Oc1ccc(-n2c(C(=O)N[C@H](C)c3ccccc3)c3n(c2=O)CCN(C(=O)c2ccc(Cl)c(Cl)c2)C3)cc1` (stereo in doubt) [Example 130, 7-(3,4-dichlorobenzoyl)-2-(4-isopropoxyphenyl)-3-oxo-N-[rac-(1R)-1-phenylethyl]-6,8-dihydro-5H-imidazo[1,5-a]pyrazine-1-carboxamide], the EC50 was 100 to 500 nM.

The compound `COc1ccc(-n2c(C(=O)N[C@@H](CO)c3ccccc3)c3n(c2=O)CCN(C(=O)c2ccc(Br)c(Cl)c2)C3)cc1` (racemic) [Example 144, 7-(4-bromo-3-chloro-benzoyl)-2-(4-methoxyphenyl)-3-oxo-N-[rac-(1R)-2-hydroxy-1-phenyl-ethyl]-6,8-dihydro-5H-imidazo[1,5-a]pyrazine-1-carboxamide] showed an EC50 of 500 to 5000 nM.

`COc1ccc(-n2c(C(=O)NCc3ccc(C(F)(F)F)cc3)c3n(c2=O)CCN(C(=O)c2ccc(Br)c(Cl)c2)C3)cc1` [Example 140, 7-(4-bromo-3-chloro-benzoyl)-2-(4-methoxyphenyl)-3-oxo-N-[[4-(trifluoromethyl)phenyl]methyl]-6,8-dihydro-5H-imidazo[1,5-a]pyrazine-1-carboxamide]: the EC50 fell in the range of 500 to 5000 nM.

As for `CC(C)Oc1ccc(-n2c(C(=O)NCc3ccc(C(=O)O)cc3)c3n(c2=O)CCN(C(=O)c2ccc(Br)c(Cl)c2)C3)cc1` [Example 294, 4-[[[7-(4-bromo-3-chloro-benzoyl)-2-(4-isopropoxyphenyl)-3-oxo-6,8-dihydro-5H-imidazo[1,5-a]pyrazine-1-carbonyl]amino]methyl]benzoic acid], the EC50 was over 5000 nM.

`C[C@@H]1Cn2c(c3n(c2=O)C[C@@H](F)CN(Cc2ccccc2)C3=O)CN1C(=O)c1ccc(Br)c(Cl)c1` (stereo in doubt) [Example 373, rac-(5R,11S)-13-benzyl-4-(4-bromo-3-chloro-benzoyl)-11-fluoro-5-methyl-4,7,9,13-tetrazatricyclo[7.5.0.0^2,7]tetradec-1-ene-8,14-dione] registered a concentration for a half-maximal effect (EC50) of 100 to 500 nM.

`O=C(c1ccc(Br)c(Cl)c1)N1CCn2c(c3n(c2=O)CCCN(CC2CC2)C3=O)C1` [Example 133, 4-(4-bromo-3-chloro-benzoyl)-13-(cyclopropylmethyl)-4,7,9,13-tetrazatricyclo[7.5.0.0^2,7]tetradec-1-ene-8.14-dione] yielded an EC50 of over 5000 nM.

Regarding `CC(NC(=O)c1c2n(c(=O)n1-c1ccc(OC3CC3)cc1)CCN(C(=O)c1ccc(Br)c(Cl)c1)C2)c1ccc(C#N)cc1F` (racemic) [Example 340, 7-(4-bromo-3-chloro-benzoyl)-2-[4-(cyclopropoxy)phenyl]-3-oxo-N-[rac-(1S)-1-(4-cyano-2-fluoro-phenyl)ethyl]-6,8-dihydro-5H-imidazo[1,5-a]pyrazine-1-carboxamide], the 50% effective concentration (EC50) lay in the range of 100 to 500 nM.

In turn, `COc1ccc([C@H](C)NC(=O)c2c3n(c(=O)n2-c2ccc(OC(C)C)cc2)CCN(C(=O)c2ccc(Br)c(Cl)c2)C3)c(F)c1` (stereo in doubt) [Example 235, 7-(4-bromo-3-chloro-benzoyl)-2-(4-isopropoxyphenyl)-3-oxo-N-[rac-(1S)-1-(2-fluoro-4-methoxy-phenyl)ethyl]-6,8-dihydro-5H-imidazo[1,5-a]pyrazine-1-carboxamide] came in with an EC50 of 100 to 500 nM.

In turn, `O=C(NCc1ccccc1)c1c2n(c(=O)n1-c1ccccn1)CCN(C(=O)c1ccc(Cl)c(Cl)c1)C2` [Example 78, N-benzyl-7-(3,4-dichlorobenzoyl)-3-oxo-2-(2-pyridyl)-6,8-dihydro-5H-imdiazo[1,5-a]pyrazine-1-carboxamide] came in with an EC50 of over 5000 nM.
